Reference: ChEMBL document CHEMBL4229547, “Design, synthesis and biological mechanisms research on 1,2,3-triazole derivatives of Jiyuan Oridonin A” (Bioorg Med Chem, 2018)
Calls of active or inactive are those of the source. The calls are words filed in the database; no cut-off is given here.

Assays:
MGC-803 [1] = experiment: Cell cycle arrest in human MGC803 cells assessed as accumulation at G0/G1 phase at 1.5 ug/ml after 48 hrs by propidium iodide staining-based flow cytometric method (reference value: 52.5 +/- 3.71%); type: functional
ECa-109 cell line = experiment: Antiproliferative activity against human ECA109 cells after 48 hrs by MTT assay; type: functional, cell-based; conditions: ECa-109, 48 h
EC9706 = experiment: Antiproliferative activity against human EC9706 cells after 48 hrs by MTT assay; type: functional, cell-based; conditions: EC9706, 48 h
MCF7 = experiment: Antiproliferative activity against human MCF7 cells after 48 hrs by MTT assay; type: functional, cell-based; conditions: MCF7, 48 h
MGC-803 [2] = experiment: Antiproliferative activity against human MGC803 cells after 48 hrs by MTT assay; type: functional, cell-based; conditions: MGC-803, 48 h
HGC-27 = experiment: Antiproliferative activity against human HGC27 cells after 48 hrs by MTT assay; type: functional, cell-based; conditions: HGC-27, 48 h
GES1 = experiment: Antiproliferative activity against human GES-1 cells after 48 hrs by MTT assay; type: cell-based; conditions: GES1, 48 h
MGC-803 [3] = experiment: Antiproliferative activity against human MGC803 cells at 16 to 32 ug/ml after 48 hrs by MTT assay relative to control; type: functional
MGC-803 [4] = experiment: Induction of reactive oxygen species formation in human MGC803 cells at 3 ug/ml after 3 hrs by DCFH-DA staining-based flow cytometry (reference value: 7.1%); type: functional
MGC-803 [5] = experiment: Induction of reactive oxygen species formation in human MGC803 cells at 3 ug/ml after 5 hrs by DCFH-DA staining-based flow cytometry (reference value: 7.1%); type: functional
MGC-803 [6] = experiment: Disruption of mitochondrial membrane potential in human MGC803 cells at 1.5 to 3 ug/ml after 24 hrs by JC1 staining-based fluorescence microscopic method; type: functional, cell-based
MGC-803 [7] = experiment: Induction of apoptosis in human MGC803 cells assessed as upregulation of cleaved caspase-9 levels after 48 hrs by Western blot method; type: functional, cell-based
MGC-803 [8] = experiment: Induction of apoptosis in human MGC803 cells assessed as early apoptotic cells at 1.5 ug/ml by annexin V-FITC/propidium iodide staining-based flow cytometric method (reference value: 1.3%); type: functional
MGC-803 [9] = experiment: Induction of apoptosis in human MGC803 cells assessed as necrotic cells at 1.5 ug/ml by annexin V-FITC/propidium iodide staining-based flow cytometric method (reference value: 1%); type: functional
MGC-803 [10] = experiment: Induction of apoptosis in human MGC803 cells assessed as viable cells at 1.5 ug/ml by annexin V-FITC/propidium iodide staining-based flow cytometric method (reference value: 97.6%); type: functional; conditions: read-out: Activity
MGC-803 [11] = experiment: Induction of apoptosis in human MGC803 cells assessed as early apoptotic cells at 3 ug/ml by annexin V-FITC/propidium iodide staining-based flow cytometric method (reference value: 1.3%); type: functional
MGC-803 [12] = experiment: Induction of apoptosis in human MGC803 cells assessed as late apoptotic cells at 3 ug/ml by annexin V-FITC/propidium iodide staining-based flow cytometric method (reference value: 0.1%); type: functional
MGC-803 [13] = experiment: Induction of apoptosis in human MGC803 cells assessed as viable cells at 3 ug/ml by annexin V-FITC/propidium iodide staining-based flow cytometric method (reference value: 97.6%); type: functional; conditions: read-out: Activity
MGC-803 [14] = experiment: Induction of apoptosis in human MGC803 cells assessed as late apoptotic cells at 1.5 ug/ml in presence of N-acetyl cysteine by annexin V-FITC/propidium iodide staining-based flow cytometric method (reference value: 0.1%); type: functional
MGC-803 [15] = experiment: Induction of apoptosis in human MGC803 cells assessed as necrotic cells at 1.5 ug/ml in presence of N-acetyl cysteine by annexin V-FITC/propidium iodide staining-based flow cytometric method (reference value: 1%); type: functional
MGC-803 [16] = experiment: Induction of apoptosis in human MGC803 cells assessed as viable cells at 1.5 ug/ml in presence of N-acetyl cysteine by annexin V-FITC/propidium iodide staining-based flow cytometric method (reference value: 97.6%); type: functional; conditions: read-out: Activity
MGC-803 [17] = experiment: Induction of apoptosis in human MGC803 cells assessed as late apoptotic cells at 3 ug/ml in presence of N-acetyl cysteine by annexin V-FITC/propidium iodide staining-based flow cytometric method (reference value: 0.1%); type: functional
MGC-803 [18] = experiment: Induction of apoptosis in human MGC803 cells assessed as necrotic cells at 3 ug/ml in presence of N-acetyl cysteine by annexin V-FITC/propidium iodide staining-based flow cytometric method (reference value: 1%); type: functional
MGC-803 [19] = experiment: Induction of apoptosis in human MGC803 cells assessed as viable cells at 3 ug/ml in presence of N-acetyl cysteine by annexin V-FITC/propidium iodide staining-based flow cytometric method (reference value: 97.6%); type: functional; conditions: read-out: Activity
MGC-803 [20] = experiment: Induction of apoptosis in human MGC803 cells assessed as decrease in cell number after 24 hrs by inverted microscopic method; type: functional, cell-based
MGC-803 [21] = experiment: Induction of apoptosis in human MGC803 cells assessed as increase in apoptotic bodies formation at 1.5 to 6 ug/ml after 24 hrs by Hoechst 33258 staining-based fluorescence microscopic method; type: functional, cell-based
MGC-803 [22] = experiment: Cell cycle arrest in human MGC803 cells assessed as accumulation at G0/G1 phase at 3 ug/ml after 48 hrs in presence of N-acetyl cysteine by propidium iodide staining-based flow cytometric method (reference value: 52.5 +/- 3.71%); type: functional
MGC-803 [23] = experiment: Cell cycle arrest in human MGC803 cells assessed as accumulation at S phase at 3 ug/ml after 48 hrs by propidium iodide staining-based flow cytometric method (reference value: 32.5 +/- 2.25%); type: functional
MGC-803 [24] = experiment: Cell cycle arrest in human MGC803 cells assessed as accumulation at S phase at 1.5 ug/ml after 48 hrs in presence of N-acetyl cysteine by propidium iodide staining-based flow cytometric method (reference value: 32.5 +/- 2.25%); type: functional
MGC-803 [25] = experiment: Cell cycle arrest in human MGC803 cells assessed as accumulation at S phase at 3 ug/ml after 48 hrs in presence of N-acetyl cysteine by propidium iodide staining-based flow cytometric method (reference value: 32.5 +/- 2.25%); type: functional
MGC-803 [26] = experiment: Cell cycle arrest in human MGC803 cells assessed as accumulation at G2/M phase at 1.5 ug/ml after 48 hrs by propidium iodide staining-based flow cytometric method (reference value: 17.2 +/- 1.35%); type: functional
MGC-803 [27] = experiment: Cell cycle arrest in human MGC803 cells assessed as accumulation at G2/M phase at 3 ug/ml after 48 hrs by propidium iodide staining-based flow cytometric method (reference value: 17.2 +/- 1.35%); type: functional
MGC-803 [28] = experiment: Induction of apoptosis in human MGC803 cells assessed as upregulation of p53 levels at 1.5 to 6 ug/ml after 48 hrs by Western blot method; type: functional, cell-based
MGC-803 [29] = experiment: Induction of apoptosis in human MGC803 cells assessed as downregulation of survivin levels at 1.5 to 6 ug/ml after 48 hrs by Western blot method; type: functional, cell-based
MGC-803 [30] = experiment: Cell cycle arrest in human MGC803 cells assessed as accumulation at G2/M phase after 48 hrs by propidium iodide staining-based flow cytometric method; type: functional

## C=C1C(=O)[C@]23[C@H](O)[C@H]1C[C@H](O)[C@H]2[C@]12CCCC(C)(C)[C@H]1C[C@H]3O[C@@H]2OCCc1cn(Cc2ccc(Cl)cc2)nn1
MGC-803 [1]
  Activity: 46.3%
ECa-109 cell line
  IC50: 2700 nM
EC9706
  IC50: 5.04 µM
MCF7
  IC50: 4.76 µM
MGC-803 [2]
  IC50: 2530 nM
HGC-27
  IC50: 2970 nM
GES1
  IC50: 28.7 µM
MGC-803 [3]
  inhibition (INH): 90%
MGC-803 [4]
  Activity: 13.6%
MGC-803 [5]
  Activity: 24.8%
MGC-803 [6]
  Activity: Active
MGC-803 [7]
  Activity: Dose-dependent effect
MGC-803 [8]
  Activity: 7.8%
MGC-803 [9]
  Activity: 0.5%
MGC-803 [10]
  viability at 1.5 µg/mL: 91%
MGC-803 [11]
  Activity: 60.3%
MGC-803 [12]
  Activity: 1.1%
MGC-803 [13]
  viability at 3 µg/mL: 37.4%
MGC-803 [14]
  Activity: 0.1%
MGC-803 [15]
  Activity: 0.6%
MGC-803 [16]
  viability at 1.5 µg/mL: 95%
MGC-803 [17]
  Activity: 0%
MGC-803 [18]
  Activity: 0.6%
MGC-803 [19]
  viability at 3 µg/mL: 94%
MGC-803 [20]
  Activity: Dose-dependent effect
MGC-803 [21]
  Activity: Active
MGC-803 [22]
  Activity: 50.4%
MGC-803 [23]
  Activity: 29.6%
MGC-803 [24]
  Activity: 29.1%
MGC-803 [25]
  Activity: 33.2%
MGC-803 [26]
  Activity: 26.7%
MGC-803 [27]
  Activity: 40.3%
MGC-803 [28]
  Activity: Active
MGC-803 [29]
  Activity: Active
MGC-803 [30]
  Activity: Dose-dependent effect
